# In ChEMBL document CHEMBL1151623, “Flavonoids from Brickellia glutinosa” (J Nat Prod, 1984):
# Key:
# [1] = biological target: Aldo-keto reductase family 1 member B1 (Homo sapiens) (UniProt P15121); test: Inhibition of aldose reductase at 0.1 uM
# [2] = biological target: Aldo-keto reductase family 1 member B1 (Homo sapiens) (UniProt P15121); test: Inhibition of aldose reductase at 1 uM
SMILES,inhibition [1] [%],inhibition [2] [%]
COc1cc2oc(-c3ccc(O)c(O)c3)c(OC)c(=O)c2c(O)c1O,97,71
COc1ccc(-c2oc3cc(O[C@@H]4O[C@H](CO)[C@@H](O)[C@H](O)[C@H]4O)c(OC)c(O)c3c(=O)c2OC)cc1O,47,0
C[C@@H]1O[C@@H](Oc2c(-c3ccc(O)c(O)c3)oc3cc(O)cc(O)c3c2=O)[C@H](O)[C@H](O)[C@H]1O,91,82

# Further lines, results first:
inhibition [1] [%],inhibition [2] [%],SMILES
64,21,COc1cc2oc(-c3ccc(O)cc3)c(OC)c(=O)c2c(O)c1OC
92,44,O=C1NC(=O)c2cccc3cccc1c23
88,63,COc1cc2oc(-c3ccc(O)c(O)c3)c(OC)c(=O)c2c(O)c1OC
95,78,COc1c(-c2ccc(O)c(O)c2)oc2cc(O)cc(O)c2c1=O
